Experimental data published in ChEMBL document CHEMBL4257535, “Design, synthesis and biological evaluation of AKT inhibitors bearing a piperidin-4-yl appendant” (Medchemcomm, 2018).
The source made the active and inactive calls. The rule behind the calls is not given here.

Columns and labels:
Homo sapiens = organism: Homo sapiens; assay: Inhibition of PKA (unknown origin) at 1 uM after 40 mins by scintillation counting method relative to control
[1] = biological target: Protein kinase C alpha type (Homo sapiens) (UniProt P17252); assay: Inhibition of PKCalpha (unknown origin) at 1 uM after 40 mins by scintillation counting method relative to control
PC-3 [2] = assay: Induction of apoptosis in human PC3 cells assessed as live cells at 5 uM after 48 hrs by Annexin V-FITC/propidium iodide staining based flow cytometry (reference value: 97.19%); format: functional
[3] = biological target: T1, RAC-alpha serine/threonine-protein kinase (Homo sapiens, UniProt P31749); assay: Inhibition of AKT1 (unknown origin) at 0.1 uM using biotin-labelled STK as substrate measured after 45 mins by HTRF method relative to control
PC-3 [4] = assay: Induction of apoptosis in human PC3 cells assessed as early apoptotic cells at 1 uM after 48 hrs by Annexin V-FITC/propidium iodide staining based flow cytometry (reference value: 1.05%); format: functional
[5] = biological target: Tyrosine-protein kinase ABL1 (Homo sapiens) (UniProt P00519); assay: Inhibition of ABL (unknown origin) at 1 uM after 40 mins by scintillation counting method relative to control
[6] = biological target: RAC-beta serine/threonine-protein kinase (Homo sapiens) (UniProt P31751); assay: Inhibition of AKT2 (unknown origin) at 10 nM after 40 mins by scintillation counting method relative to control
[7] = biological target: T1, RAC-alpha serine/threonine-protein kinase; assay: Inhibition of AKT1 (unknown origin) at 1 uM using biotin-labelled STK as substrate measured after 45 mins by HTRF method relative to control
in vitro = assay: in vitro; set-up: dose or concentration left out as unconfirmed; details: human, liver microsomes
Description: Half life in human liver microsomes at 10 mM preincubated for 10 mins followed by NADPH addition by LC-MS analysis

[8] = biological target: Cyclin-dependent kinase 1 (Homo sapiens) (UniProt P06493); assay: Inhibition of CDK1 (unknown origin) at 1 uM after 40 mins by scintillation counting method relative to control
PC-3 [9] = assay: Induction of apoptosis in human PC3 cells assessed as necrotic cells at 5 uM after 48 hrs by Annexin V-FITC/propidium iodide staining based flow cytometry (reference value: 1.48%); format: functional
PC-3 [10] = assay: Induction of apoptosis in human PC3 cells assessed as early apoptotic cells at 10 uM after 48 hrs by Annexin V-FITC/propidium iodide staining based flow cytometry (reference value: 1.05%); format: functional
[11] = biological target: RAF proto-oncogene serine/threonine-protein kinase (Homo sapiens) (UniProt P04049); assay: Inhibition of RAF1 (unknown origin) at 1 uM after 40 mins by scintillation counting method relative to control
[12] = biological target: MAP kinase-interacting serine/threonine-protein kinase 1 (Homo sapiens) (UniProt Q9BUB5); assay: Inhibition of MNK1 (unknown origin) at 1 uM after 40 mins by scintillation counting method relative to control
[13] = biological target: T1, RAC-alpha serine/threonine-protein kinase; assay: Inhibition of AKT in human PC3 cells assessed as reduction in GSK3beta phosphorylation at 1 to 10 uM after 4 hrs by Western blot analysis; format: cell-based
[14] = biological target: Tyrosine-protein kinase JAK1 (Homo sapiens) (UniProt P23458); assay: Inhibition of JAK1 (unknown origin) at 1 uM after 40 mins by scintillation counting method relative to control
PC-3 [15] = assay: Induction of apoptosis in human PC3 cells assessed as live cells at 10 uM after 48 hrs by Annexin V-FITC/propidium iodide staining based flow cytometry (reference value: 97.19%); format: functional
[16] = biological target: T1, RAC-alpha serine/threonine-protein kinase; assay: Inhibition of AKT1 (unknown origin) using biotin-labelled STK as substrate measured after 45 mins by HTRF method
PC-3 [17] = assay: Induction of apoptosis in human PC3 cells assessed as necrotic cells at 10 uM after 48 hrs by Annexin V-FITC/propidium iodide staining based flow cytometry (reference value: 1.48%); format: functional
[18] = biological target: RAC-gamma serine/threonine-protein kinase (Homo sapiens) (UniProt Q9Y243); assay: Inhibition of AKT3 (unknown origin) at 10 nM after 40 mins by scintillation counting method relative to control
PC-3 [19] = assay: Antiproliferative activity against human PC3 cells after 72 hrs by MTT assay; format: functional, cell-based; details: PC-3, 72 h
PC-3 [20] = assay: Induction of apoptosis in human PC3 cells assessed as late apoptotic cells at 10 uM after 48 hrs by Annexin V-FITC/propidium iodide staining based flow cytometry (reference value: 0.27%); format: functional
[21] = biological target: T1, RAC-alpha serine/threonine-protein kinase; assay: Inhibition of AKT1 (unknown origin) at 10 nM after 40 mins by scintillation counting method relative to control
[22] = biological target: Glycogen synthase kinase-3 beta (Homo sapiens) (UniProt P49841); assay: Inhibition of GSK3beta (unknown origin) at 1 uM after 40 mins by scintillation counting method relative to control
[23] = biological target: T2, 3-phosphoinositide-dependent protein kinase 1 (Homo sapiens) (UniProt O15530); assay: Inhibition of PDK1 (unknown origin) at 1 uM after 40 mins by scintillation counting method relative to control
T2 sequence (whole entry): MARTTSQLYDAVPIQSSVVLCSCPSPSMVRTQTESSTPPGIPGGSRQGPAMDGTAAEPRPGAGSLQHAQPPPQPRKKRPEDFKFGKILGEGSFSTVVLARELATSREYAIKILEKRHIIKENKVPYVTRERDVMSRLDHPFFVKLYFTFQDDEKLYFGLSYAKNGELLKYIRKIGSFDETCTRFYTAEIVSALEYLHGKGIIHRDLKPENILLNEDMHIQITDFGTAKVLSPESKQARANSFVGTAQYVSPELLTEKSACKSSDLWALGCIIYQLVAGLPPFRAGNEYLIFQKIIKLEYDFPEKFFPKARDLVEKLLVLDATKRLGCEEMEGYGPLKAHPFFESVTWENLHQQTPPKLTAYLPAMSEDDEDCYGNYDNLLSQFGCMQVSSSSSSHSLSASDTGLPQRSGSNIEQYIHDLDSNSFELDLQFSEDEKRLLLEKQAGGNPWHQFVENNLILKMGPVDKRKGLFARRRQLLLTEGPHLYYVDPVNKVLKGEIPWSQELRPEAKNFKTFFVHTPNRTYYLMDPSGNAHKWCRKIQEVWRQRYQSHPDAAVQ

PC-3 [24] = assay: Induction of apoptosis in human PC3 cells assessed as late apoptotic cells at 1 uM after 48 hrs by Annexin V-FITC/propidium iodide staining based flow cytometry (reference value: 0.27%); format: functional
PC-3 [25] = assay: Induction of apoptosis in human PC3 cells assessed as necrotic cells at 1 uM after 48 hrs by Annexin V-FITC/propidium iodide staining based flow cytometry (reference value: 1.48%); format: functional
[26] = biological target: Ribosomal protein S6 kinase alpha-1 (Homo sapiens) (UniProt Q15418); assay: Inhibition of RSK1 (unknown origin) at 1 uM after 40 mins by scintillation counting method relative to control

T1 sequence (P31749 whole entry): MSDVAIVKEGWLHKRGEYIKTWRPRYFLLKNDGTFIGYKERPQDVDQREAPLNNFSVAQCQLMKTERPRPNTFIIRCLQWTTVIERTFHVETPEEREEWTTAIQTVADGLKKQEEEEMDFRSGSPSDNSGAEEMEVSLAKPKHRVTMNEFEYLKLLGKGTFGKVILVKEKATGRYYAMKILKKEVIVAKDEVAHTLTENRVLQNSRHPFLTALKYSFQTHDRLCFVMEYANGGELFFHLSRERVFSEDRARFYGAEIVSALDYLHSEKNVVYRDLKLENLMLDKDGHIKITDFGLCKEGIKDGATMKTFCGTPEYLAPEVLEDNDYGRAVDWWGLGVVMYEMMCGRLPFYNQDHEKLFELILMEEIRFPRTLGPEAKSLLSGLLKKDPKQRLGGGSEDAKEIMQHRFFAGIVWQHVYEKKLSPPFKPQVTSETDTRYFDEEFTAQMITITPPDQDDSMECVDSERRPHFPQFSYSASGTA
Sequence of RAF proto-oncogene serine/threonine-protein kinase (Homo sapiens) (P04049 whole entry): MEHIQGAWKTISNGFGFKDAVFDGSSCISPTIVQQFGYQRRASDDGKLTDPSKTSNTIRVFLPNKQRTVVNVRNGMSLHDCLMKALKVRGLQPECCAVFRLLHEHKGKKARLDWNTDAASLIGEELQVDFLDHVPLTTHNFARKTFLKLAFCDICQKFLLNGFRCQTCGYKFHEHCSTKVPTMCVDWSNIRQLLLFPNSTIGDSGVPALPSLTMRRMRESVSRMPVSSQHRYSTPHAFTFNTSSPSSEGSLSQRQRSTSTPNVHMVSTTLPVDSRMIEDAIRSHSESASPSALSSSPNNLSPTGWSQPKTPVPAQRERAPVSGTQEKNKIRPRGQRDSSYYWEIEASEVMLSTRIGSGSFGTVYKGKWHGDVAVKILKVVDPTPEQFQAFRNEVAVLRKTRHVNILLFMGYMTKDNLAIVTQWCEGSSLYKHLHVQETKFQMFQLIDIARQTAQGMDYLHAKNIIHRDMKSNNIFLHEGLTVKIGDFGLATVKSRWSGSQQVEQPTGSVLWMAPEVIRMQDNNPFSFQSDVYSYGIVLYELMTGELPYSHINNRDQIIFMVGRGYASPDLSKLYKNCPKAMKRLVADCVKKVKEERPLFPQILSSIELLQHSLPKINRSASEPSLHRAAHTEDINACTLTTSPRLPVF
Sequence of Tyrosine-protein kinase JAK1 (Homo sapiens) (P23458 whole entry): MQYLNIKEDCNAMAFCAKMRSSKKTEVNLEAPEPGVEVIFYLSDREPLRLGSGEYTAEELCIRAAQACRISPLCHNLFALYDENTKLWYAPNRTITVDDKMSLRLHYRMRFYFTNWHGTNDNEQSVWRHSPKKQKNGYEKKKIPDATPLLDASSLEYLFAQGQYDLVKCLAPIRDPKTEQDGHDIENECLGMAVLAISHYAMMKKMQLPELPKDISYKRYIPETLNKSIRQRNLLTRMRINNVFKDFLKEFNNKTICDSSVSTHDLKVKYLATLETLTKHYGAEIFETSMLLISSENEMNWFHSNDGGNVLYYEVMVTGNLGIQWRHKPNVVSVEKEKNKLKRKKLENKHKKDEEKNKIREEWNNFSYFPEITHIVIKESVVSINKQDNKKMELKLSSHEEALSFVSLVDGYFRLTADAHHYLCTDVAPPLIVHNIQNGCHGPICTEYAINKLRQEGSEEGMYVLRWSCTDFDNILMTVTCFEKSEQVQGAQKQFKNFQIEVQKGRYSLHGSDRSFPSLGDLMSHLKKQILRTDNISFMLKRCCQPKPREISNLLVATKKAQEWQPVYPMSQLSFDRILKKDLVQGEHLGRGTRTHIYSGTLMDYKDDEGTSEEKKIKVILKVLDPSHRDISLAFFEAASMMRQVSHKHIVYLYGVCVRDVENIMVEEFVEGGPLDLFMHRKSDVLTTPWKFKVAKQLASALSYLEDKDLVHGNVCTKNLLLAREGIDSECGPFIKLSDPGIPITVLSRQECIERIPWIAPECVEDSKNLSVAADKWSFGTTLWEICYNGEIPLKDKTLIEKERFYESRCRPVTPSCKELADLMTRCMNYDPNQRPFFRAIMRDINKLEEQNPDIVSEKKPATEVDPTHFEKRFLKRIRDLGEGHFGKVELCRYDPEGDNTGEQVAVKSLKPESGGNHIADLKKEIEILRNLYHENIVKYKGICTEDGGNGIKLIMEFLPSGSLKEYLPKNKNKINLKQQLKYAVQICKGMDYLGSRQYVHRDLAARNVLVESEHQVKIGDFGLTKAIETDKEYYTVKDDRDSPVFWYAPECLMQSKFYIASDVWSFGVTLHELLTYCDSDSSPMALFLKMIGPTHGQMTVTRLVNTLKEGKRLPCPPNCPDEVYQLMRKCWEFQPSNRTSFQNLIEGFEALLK
Sequence of RAC-beta serine/threonine-protein kinase (Homo sapiens) (P31751 whole entry): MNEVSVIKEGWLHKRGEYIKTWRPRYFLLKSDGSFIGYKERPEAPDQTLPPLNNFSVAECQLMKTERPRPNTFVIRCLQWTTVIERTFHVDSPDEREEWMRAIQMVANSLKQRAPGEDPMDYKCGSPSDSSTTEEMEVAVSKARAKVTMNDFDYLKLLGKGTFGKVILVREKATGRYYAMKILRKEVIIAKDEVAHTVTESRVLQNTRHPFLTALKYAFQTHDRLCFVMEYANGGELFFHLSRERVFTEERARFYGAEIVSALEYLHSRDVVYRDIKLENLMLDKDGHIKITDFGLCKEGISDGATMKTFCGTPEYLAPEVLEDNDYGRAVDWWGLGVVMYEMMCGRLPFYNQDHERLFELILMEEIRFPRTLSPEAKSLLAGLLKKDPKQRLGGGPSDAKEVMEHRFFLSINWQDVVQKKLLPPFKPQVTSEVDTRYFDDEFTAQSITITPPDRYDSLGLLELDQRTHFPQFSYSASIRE
Sequence of Cyclin-dependent kinase 1 (Homo sapiens) (P06493 whole entry, looked up): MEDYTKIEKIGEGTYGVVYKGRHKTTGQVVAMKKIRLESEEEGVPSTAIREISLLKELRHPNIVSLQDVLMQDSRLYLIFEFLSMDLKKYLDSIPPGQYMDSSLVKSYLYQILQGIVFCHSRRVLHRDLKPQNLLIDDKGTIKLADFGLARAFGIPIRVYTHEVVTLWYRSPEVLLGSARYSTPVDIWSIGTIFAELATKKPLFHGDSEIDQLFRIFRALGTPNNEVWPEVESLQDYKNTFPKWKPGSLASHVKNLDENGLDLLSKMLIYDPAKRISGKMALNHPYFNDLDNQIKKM
Sequence of Tyrosine-protein kinase ABL1 (Homo sapiens) (P00519 whole entry): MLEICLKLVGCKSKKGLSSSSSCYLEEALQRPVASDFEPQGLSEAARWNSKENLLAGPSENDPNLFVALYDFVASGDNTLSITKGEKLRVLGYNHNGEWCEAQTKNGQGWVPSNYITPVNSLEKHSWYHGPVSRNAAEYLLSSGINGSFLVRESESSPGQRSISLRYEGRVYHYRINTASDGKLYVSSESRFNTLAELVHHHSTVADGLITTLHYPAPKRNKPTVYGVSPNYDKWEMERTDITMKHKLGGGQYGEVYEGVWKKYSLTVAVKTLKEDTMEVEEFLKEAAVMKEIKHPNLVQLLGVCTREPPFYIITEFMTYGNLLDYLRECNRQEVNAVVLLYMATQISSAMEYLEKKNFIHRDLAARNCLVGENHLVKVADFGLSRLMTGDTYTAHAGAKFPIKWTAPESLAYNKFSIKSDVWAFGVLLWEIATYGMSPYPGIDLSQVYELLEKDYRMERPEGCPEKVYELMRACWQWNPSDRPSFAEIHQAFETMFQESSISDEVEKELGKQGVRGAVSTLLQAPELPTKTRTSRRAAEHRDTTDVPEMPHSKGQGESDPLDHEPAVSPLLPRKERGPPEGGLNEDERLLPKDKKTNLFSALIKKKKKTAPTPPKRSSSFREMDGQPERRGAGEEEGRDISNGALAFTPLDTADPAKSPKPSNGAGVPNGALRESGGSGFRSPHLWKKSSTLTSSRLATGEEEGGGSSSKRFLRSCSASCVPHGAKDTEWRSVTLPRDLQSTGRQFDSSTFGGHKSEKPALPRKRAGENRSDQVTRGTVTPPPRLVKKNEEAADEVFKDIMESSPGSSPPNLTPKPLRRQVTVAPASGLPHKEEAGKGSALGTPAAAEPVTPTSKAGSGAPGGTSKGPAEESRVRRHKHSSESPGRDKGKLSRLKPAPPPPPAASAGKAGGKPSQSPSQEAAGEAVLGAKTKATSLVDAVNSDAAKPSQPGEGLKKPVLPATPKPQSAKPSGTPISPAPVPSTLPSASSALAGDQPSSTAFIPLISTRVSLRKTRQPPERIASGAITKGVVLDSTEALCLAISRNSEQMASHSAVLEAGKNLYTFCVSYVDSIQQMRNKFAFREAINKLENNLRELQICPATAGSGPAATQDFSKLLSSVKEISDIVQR

O=C(N1CCN(c2ncnc3[nH]nc(Cl)c23)CC1)C1(c2ccc(Cl)c(Cl)c2)CCNCC1
inhibition (Homo sapiens): 99% | inhibition [1]: inactive | Activity (PC-3 [2]): 88.11% | inhibition [3]: 83.7% | Activity (PC-3 [4]): 2.7% | inhibition [5]: inactive | inhibition [6]: 38% | inhibition [7]: 94.3% | half-life (in vitro): > 2.42 h | inhibition [8]: inactive | Activity (PC-3 [9]): 1.76% | Activity (PC-3 [10]): 11.23% | inhibition [11]: inactive | inhibition [12]: 47% | inhibition [13]: inactive | inhibition [14]: inactive | Activity (PC-3 [15]): 68.92% | IC50 [16]: 0.0243 µM | Activity (PC-3 [17]): 3.24% | inhibition [18]: 93% | IC50 (PC-3 [19]): 3.7 µM | Activity (PC-3 [20]): 16.6% | inhibition [21]: 82% | inhibition [22]: inactive | inhibition [23]: inactive | Activity (PC-3 [24]): 4.82% | Activity (PC-3 [25]): 2% | inhibition [26]: 83%
